Several values for one entry are separate records, joined by “and”; a condition that tells them apart may be missing. Equal entries are not always repeated.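 Test compounds were applied to cells in 96-well plates for 48 hours at 5 doses. Abbreviation: GI50, concentration required for 50% inhibition of growth. Definition used: TGI = concentration required for complete inhibition of growth.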
Experiments:
Assay in all cases: DTP human tumour cell line panel, 48 h
[1] = tested on: KM12 colon
[2] = tested on: MALME-3M melanoma
[3] = tested on: MDA-MB-231 breast
[4] = tested on: MDA-MB-435
[5] = tested on: NCI-H460 lung
[6] = tested on: OVCAR-8 ovarian
[7] = tested on: RPMI-8226 leukemia
[8] = tested on: SF-539 CNS
[9] = tested on: SK-MEL-5 melanoma
[10] = tested on: UACC-257 melanoma

SMILES: Nc1ncc(-c2ccc(C(F)(F)F)cc2)c(NC2CCCCCC2)n1
- GI50 [1]: 37.2 µM
- TGI [1]: > 100 µM
- GI50 [2]: 18.6 µM
- TGI [2]: 81.8 µM
- GI50 [3]: 21.3 µM
- TGI [3]: 76.9 µM
- GI50 [4]: 35 µM
- TGI [4]: > 100 µM
- GI50 [5]: 42.7 µM
- TGI [5]: > 100 µM
- GI50 [6]: 32.5 µM
- TGI [6]: > 100 µM
- GI50 [7]: 8.91 µM
- TGI [7]: 41.1 µM
- GI50 [8]: 52.5 µM
- TGI [8]: > 100 µM
- GI50 [9]: 12.3 µM
- TGI [9]: 35 µM
- GI50 [10]: 22.3 µM
- TGI [10]: > 100 µM

SMILES: CN(/N=N/c1nc(OCc2ccccc2)c2[nH]cnc2n1)C(=O)N(C)/N=N/c1nc(OCc2ccccc2)c2[nH]cnc2n1
- GI50 [1]: 84.2 µM
- TGI [1]: > 100 µM
- GI50 [2]: 40.8 µM
- TGI [2]: > 100 µM
- GI50 [3]: 41.2 µM
- TGI [3]: > 100 µM
- GI50 [4]: 49.1 µM
- TGI [4]: > 100 µM
- GI50 [5]: 26.1 µM
- TGI [5]: > 100 µM
- GI50 [6]: 51 µM
- TGI [6]: > 100 µM
- GI50 [7]: 38.1 µM
- TGI [7]: > 100 µM
- GI50 [8]: 38.4 µM
- TGI [8]: > 100 µM
- GI50 [9]: 20.9 µM
- TGI [9]: 61.5 µM
- GI50 [10]: 54.7 µM
- TGI [10]: > 100 µM

SMILES: O=C(O)c1ccc(NS(=O)(=O)c2cccc3cccnc23)cc1
- GI50 [1]: > 100 µM
- TGI [1]: > 100 µM
- GI50 [2]: > 100 µM
- TGI [2]: > 100 µM
- GI50 [3]: > 100 µM
- TGI [3]: > 100 µM
- GI50 [4]: > 100 µM
- TGI [4]: > 100 µM
- GI50 [5]: > 100 µM
- TGI [5]: > 100 µM
- GI50 [6]: > 100 µM
- TGI [6]: > 100 µM
- GI50 [7]: > 100 µM
- TGI [7]: > 100 µM
- GI50 [8]: > 100 µM
- TGI [8]: > 100 µM
- GI50 [9]: > 100 µM
- TGI [9]: > 100 µM
- GI50 [10]: > 100 µM
- TGI [10]: > 100 µM

SMILES: COc1ccc(C(=O)c2cc(OC)c(OC)c(OC)c2)cc1O
- GI50 [1]: < 0.0155 µM
- TGI [1]: > 100 µM
- GI50 [2]: > 100 µM
- TGI [2]: > 100 µM
- GI50 [3]: 0.0559 µM
- TGI [3]: > 100 µM
- GI50 [4]: < 0.01 µM
- GI50 [5]: 0.0373 µM
- TGI [5]: > 100 µM
- GI50 [6]: 0.0427 µM
- TGI [6]: > 100 µM
- GI50 [7]: 0.0342 µM
- TGI [7]: > 64.9 µM
- GI50 [8]: 0.0112 µM
- TGI [8]: 0.0557 µM
- GI50 [9]: 0.0439 µM
- TGI [9]: 0.315 µM
- GI50 [10]: > 100 µM
- TGI [10]: > 100 µM

SMILES: CN(C)CCNC(=O)c1cc([N+](=O)[O-])ccn1
- TGI [1]: > 100 µM
- TGI [2]: 28 µM
- TGI [3]: 58.1 µM
- TGI [4]: 35.8 µM
- TGI [5]: > 100 µM
- TGI [6]: 76.4 µM
- TGI [7]: > 100 µM
- TGI [8]: 59.4 µM
- TGI [9]: 41.5 µM
- TGI [10]: 29.8 µM

SMILES: C=C1C(=O)O[C@@H]2C[C@@H](C)[C@@H]3[C@@H](OC4OC(COC(C)=O)C(O)C(O)C4O)CC(=O)[C@@]3(C)C[C@H]12 (stereo partly drawn)
- TGI [1]: 22.9 µM
- TGI [2]: 0.849 µM
- TGI [3]: 8.92 µM
- TGI [4]: 6.03 µM
- TGI [5]: 28.7 µM
- TGI [6]: 3.7 µM
- TGI [7]: 8.53 µM
- TGI [8]: 6.27 µM
- TGI [9]: 4.86 µM
- TGI [10]: 3.49 µM

SMILES: COc1cccc(/C=C/C(=O)c2cc3c(N)c(C(=O)Nc4cccc(Cl)c4C)sc3nc2C)c1
- GI50 [1]: 1.02 µM
- TGI [1]: 2.8 µM
- GI50 [2]: 1.34 µM
- TGI [2]: 7.76 µM
- GI50 [3]: 1.13 µM
- TGI [3]: 2.68 µM
- GI50 [4]: 0.345 µM
- TGI [4]: 1.32 µM
- GI50 [5]: 1.38 µM
- TGI [5]: 4.45 µM
- GI50 [6]: 1.49 µM
- TGI [6]: > 50 µM
- GI50 [7]: 0.257 µM
- TGI [7]: 1.57 µM
- GI50 [8]: 0.967 µM
- TGI [8]: 2.01 µM
- GI50 [9]: 1 µM
- TGI [9]: 2.34 µM
- GI50 [10]: 3.48 µM
- TGI [10]: 20.9 µM

SMILES: O=[N+]([O-])c1cc(Br)cc2c1[nH]c1ccc(Br)cc12
- GI50 [1]: 13.3 µM
- TGI [1]: > 100 µM
- GI50 [2]: 10.8 µM
- TGI [2]: 66.3 µM
- GI50 [3]: 2.71 µM
- TGI [3]: > 100 µM
- GI50 [4]: 20.6 µM
- TGI [4]: > 100 µM
- GI50 [5]: 4.66 µM
- TGI [5]: 66.6 µM
- GI50 [6]: 11.4 µM
- TGI [6]: > 100 µM
- GI50 [7]: 25.4 µM
- TGI [7]: > 100 µM
- GI50 [8]: 12.2 µM
- TGI [8]: 71.7 µM
- GI50 [9]: 8.03 µM
- TGI [9]: > 100 µM
- GI50 [10]: 86 µM
- TGI [10]: > 100 µM

SMILES: O=c1[nH]nc2c3c(cccc13)NC(CN1Cc3ccccc3C1)=N2
- GI50 [1]: 4.41 µM
- TGI [1]: > 100 µM
- GI50 [2]: 49.1 µM
- TGI [2]: > 100 µM
- GI50 [3]: 5.5 µM
- TGI [3]: > 100 µM
- GI50 [4]: 4.39 µM
- TGI [4]: > 100 µM
- GI50 [5]: 5.25 µM
- TGI [5]: > 100 µM
- GI50 [6]: 15 µM
- TGI [6]: > 100 µM
- GI50 [7]: 8.17 µM
- TGI [7]: > 100 µM
- GI50 [8]: 7.9 µM
- TGI [8]: > 100 µM
- GI50 [9]: 8.42 µM
- TGI [9]: > 100 µM
- GI50 [10]: 37 µM
- TGI [10]: > 100 µM

SMILES: O=C(N/N=C/c1ccc(O)cc1O)c1ccc(Nc2ccnc(C(F)(F)F)c2)cc1
- GI50 [1]: > 100 µM
- TGI [1]: > 100 µM
- GI50 [2]: 0.661 µM
- TGI [2]: > 45.6 µM
- GI50 [3]: 5.83 µM
- TGI [3]: 57.2 µM
- GI50 [4]: > 100 µM
- TGI [4]: > 100 µM
- GI50 [5]: > 100 µM
- TGI [5]: > 100 µM
- GI50 [6]: 7.76 µM
- TGI [6]: > 100 µM
- GI50 [7]: > 100 µM
- TGI [7]: > 100 µM
- GI50 [8]: 6.32 µM
- TGI [8]: 24.5 µM
- GI50 [9]: > 100 µM
- TGI [9]: > 100 µM
- GI50 [10]: > 100 µM
- TGI [10]: > 100 µM

SMILES: Cc1c(CN2CCC(Nc3ncnc4sc(CC(F)(F)F)cc34)CC2)ccc2c1cc(C#N)n2Cc1cn[nH]c1
- GI50 [1]: 5.36 µM and 3.22 µM
- TGI [1]: 22.2 µM
- GI50 [2]: 1.31 µM and 2.77 µM
- TGI [2]: 2.95 µM and 15.3 µM
- GI50 [3]: 2.32 µM and 4.04 µM
- TGI [3]: 7.12 µM
- GI50 [4]: 1.99 µM and 3.78 µM
- TGI [4]: 6.15 µM
- GI50 [5]: 2.19 µM and 2.8 µM
- TGI [5]: 7.31 µM
- GI50 [6]: 5.07 µM and 6.1 µM
- TGI [6]: 21.8 µM
- GI50 [7]: 0.832 µM and 0.896 µM
- TGI [7]: 4.47 µM
- GI50 [8]: 7.37 µM and 15 µM
- TGI [8]: > 51.4 µM
- GI50 [9]: 0.967 µM and 0.958 µM
- TGI [9]: 2.61 µM and 3.02 µM
- GI50 [10]: 1.37 µM and 5.31 µM

SMILES: NC1CCC[C@@H](O)[C@H]1O (stereo partly drawn)
- TGI [1]: > 100 µM
- TGI [2]: > 100 µM
- TGI [3]: > 100 µM
- TGI [4]: > 100 µM
- TGI [5]: > 100 µM
- TGI [6]: > 100 µM
- TGI [7]: > 100 µM
- TGI [8]: > 100 µM
- TGI [9]: > 100 µM
- TGI [10]: > 100 µM

SMILES: CCc1ccc(CCC(=O)Nc2ncc(Cc3ccccc3)s2)o1
- GI50 [1]: 1.3 µM
- TGI [1]: > 100 µM
- GI50 [2]: 18.3 µM
- TGI [2]: > 100 µM
- GI50 [3]: 2.52 µM
- TGI [3]: 22.2 µM
- GI50 [4]: 0.301 µM
- TGI [4]: 10.1 µM
- GI50 [5]: 3.06 µM
- TGI [5]: > 100 µM
- GI50 [6]: 4.5 µM
- TGI [6]: > 100 µM
- GI50 [7]: 2.61 µM
- TGI [7]: > 100 µM
- GI50 [8]: 1.67 µM
- TGI [8]: 4.46 µM
- GI50 [9]: 1.16 µM
- TGI [9]: > 100 µM
- GI50 [10]: > 100 µM
- TGI [10]: > 100 µM

Source: PubChem BioAssay (NCI)
